Results published in ChEMBL document CHEMBL5154737, “Semisynthesis and biological evaluation of (+)-sclerotiorin derivatives as antitumor agents for the treatment of hepatocellular carcinoma” (Eur J Med Chem, 2022).
Active and inactive are the calls of the source. The rule behind the calls is not given here.

What was measured:
Bel-7402 [1] = experiment: Induction of apoptosis in human Bel-7402 cells assessed as early apoptotic cells at 5 uM incubated for 24 hrs by Annexin V and dead cell assay kit (reference value: 3.75 %); assay type: functional
[2] = Toxicity in ICR mouse assessed as change in plateletcrit level at 100 mg/kg, ip qd (reference value: 0.415 %); assay type: organism-based; conditions: in vivo
[3] = Toxicity in BALB/c nude mouse xenografted with Bel-7402 cells assessed as behavioural change at 20 mg/kg, ip qd; assay type: organism-based; conditions: in vivo
Bel-7402 [4] = experiment: Induction of apoptosis in human Bel-7402 cells assessed as late apoptotic cells at 2.5 uM incubated for 24 hrs by Annexin V and dead cell assay kit (reference value: 4.45 %); assay type: functional
Bel-7402 [5] = experiment: Disruption of mitochondrial membrane potential in human Bel-7402 cells incubated for 24 hrs by Rho-123 staining based flow cytometry analysis; assay type: functional, cell-based; conditions: dose <= 5.0 µM, DDE = dose-dependent effect
PANC-1 = experiment: Cytotoxicity against human PANC-1 cells assessed as reduction in cell viability incubated for 72 hrs by MTT assay; assay type: functional, cell-based; conditions: PANC-1, 72 h
[6] = Toxicity in ICR mouse assessed as change in lymphocyte level at 100 mg/kg, ip qd (reference value: 75.2 %); assay type: organism-based; conditions: in vivo
[7] = Acute toxicity in ICR mouse assessed as body weight change at 100 to 500 mg/kg, ip; assay type: organism-based; conditions: in vivo, dose 100-500 mg/kg
Bel-7402 [8] = experiment: Cytotoxicity against human Bel-7402 cells assessed as inhibition of cell growth incubated for 72 hrs by MTT assay; assay type: functional, cell-based; conditions: dose 5.0 µM, DDE = dose-dependent effect
[9] = Toxicity in BALB/c nude mouse xenografted with human Bel-7402 cells assessed as behavioural change at 10 to 20 mg/kg, ip bid; assay type: organism-based; conditions: in vivo, dose 10-20 mg/kg
Bel-7402 [10] = experiment: Cytotoxicity against human Bel-7402 cells assessed as LDH release at 2.5 uM incubated for 24 hrs by LDH assay; assay type: functional, cell-based
Bel-7402 [11] = experiment: Upregulation of total protein ubiquitination level in human Bel-7402 cells at 2.5 uM by Western blot analysis; assay type: functional, cell-based; conditions: time <= 12.0 hrs, TDE = time-dependent effect
[12] = Cytotoxicity against human Biu-87 cells assessed as reduction in cell viability incubated for 72 hrs by MTT assay; assay type: functional, cell-based; conditions: BIU87, 72 h
Bel-7402 [13] = experiment: Cytotoxicity against human Bel-7402 cells assessed as increase LDH release at 2.5 to 5 uM by LDH assay; assay type: functional, cell-based; conditions: dose 2.5-5 µM, time 24-48 hrs, TDE = time-dependent effect
Bel-7402 [14] = experiment: Induction of apoptosis in human Bel-7402 cells assessed as viable cells at 2.5 uM incubated for 24 hrs in presence of U0126 by Annexin V and Dead cell kit assay (reference value: 90.82 %); assay type: functional; conditions: read-out: Activity
Bel-7402 [15] = experiment: Induction of apoptosis in human Bel-7402 cells assessed as viable cells at 2.5 uM incubated for 24 hrs by Annexin V and Dead cell kit assay (reference value: 90.82 %); assay type: functional; conditions: read-out: Activity
[16] = Tmax in Sprague-Dawley rat at 20 mg/kg, ip measured for 0.03 to 24 hrs by UPLC-MS analysis; assay type: ADME, organism-based; conditions: in vivo, time 0.03-24 hrs
Bel-7402 [17] = experiment: Induction of ERK degradation in human Bel-7402 cells at 2.5 uM incubated for 24 hrs in presence of choro-quine by Western blot analysis; assay type: cell-based
ECa-109 cell line = experiment: Cytotoxicity against human Eca-109 cells assessed as reduction in cell viability incubated for 72 hrs by MTT assay; assay type: functional, cell-based; conditions: ECa-109, 72 h
Bel-7402 [18] = experiment: Induction of apoptosis in human Bel-7402 cells assessed as viable cells at 0.313 uM incubated for 24 hrs by Annexin V and dead cell assay kit (reference value: 91.00%); assay type: functional; conditions: read-out: Activity
[19] = Toxicity in ICR mouse assessed as change in red blood cell specific volume at 100 mg/kg, ip qd (reference value: 36.1 %); assay type: organism-based; conditions: in vivo
[20] = Drug uptake in tumor of mouse bearing tumor measured after 24 hr by ICG dye based fluorescence imaging; assay type: ADME, tissue-based, Neoplasm; conditions: in vivo
Bel-7402 [21] = experiment: Antitumor activity against human Bel-7402 cells xenografted in BALB/c nude mouse assessed as tumor growth inhibition at 20 mg/kg, ip qd measured every 2 days for 14 days relative to control; assay type: functional; conditions: Bel-7402, 336 h, time 14 day, read-out: TGI
Bel-7402 [22] = experiment: Inhibition of cell proliferation in human Bel-7402 cells assessed as inhibition of colony formation incubated for 10 days by crystal violet based plate clone formation assay; assay type: functional; conditions: dose <= 2.0 µM, time 10.0 day, DDE = dose-dependent effect
HeLa = experiment: Cytotoxicity against human HeLa cells assessed as reduction in cell viability incubated for 72 hrs by MTT assay; assay type: functional, cell-based
[23] = Chronic toxicity in ICR mouse assessed as effect on lung morphology at 100 mg/kg, ip qd measured after 26 days by H and E staining method; assay type: organism-based; conditions: in vivo, 624 h, time 26 day
[24] = Toxicity in ICR mouse assessed as change in hemoglobin level at 100 mg/kg, ip qd (reference value: 124 g/L); assay type: organism-based; conditions: in vivo
Bel-7402 [25] = experiment: Induction of apoptosis in human Bel-7402 cells assessed as late apoptotic cells at 5 uM incubated for 24 hrs by Annexin V and dead cell assay kit (reference value: 4.45 %); assay type: functional
Bel-7402 [26] = experiment: Effect on AKT signalling pathway in human Bel-7402 cells assessed as decrease in phosphorylated-AKT level upto 2.5 uM incubated for 24 hrs by Western blot analysis; assay type: functional, cell-based
Bel-7402 [27] = experiment: Cytotoxicity against human Bel-7402 cells assessed as reduction in cell viability incubated for 72 hrs by MTT assay; assay type: functional, cell-based; conditions: Bel-7402, 72 h
[28] = AUC (0 to t) in Sprague-Dawley rat at 20 mg/kg, ip measured for 0.03 to 24 hrs by UPLC-MS analysis; assay type: ADME, organism-based; design: time lower 0.03 hrs, dose 20 mg/kg, time upper 24 hrs, route ip; conditions: in vivo
[29] = Toxicity in BALB/c nude mouse xenografted with human Bel-7402 cells assessed as change in body weight at 10 to 20 mg/kg, ip bid measured every 2 days for 14 days; assay type: organism-based; conditions: in vivo, 336 h, dose 10-20 mg/kg, time 14 day
[30] = Toxicity in ICR mouse assessed as change in mean corpuscular volume at 100 mg/kg, ip qd (reference value: 51.3 fL); assay type: organism-based; conditions: in vivo
Bel-7402 [31] = experiment: Induction of apoptosis in human Bel-7402 cells assessed as late apoptotic cells at 0.625 uM incubated for 24 hrs by Annexin V and dead cell assay kit (reference value: 4.45 %); assay type: functional
[32] = Toxicity in ICR mouse assessed as change in platelet count at 100 mg/kg, ip qd (reference value: 742 10^9/L); assay type: organism-based; conditions: in vivo
[33] = Biodistribution in liver of mouse bearing tumor measured after 24 hr by ICG dye based fluorescence imaging; assay type: ADME, organism-based; conditions: in vivo
[34] = MRT (0 to t) in Sprague-Dawley rat at 20 mg/kg, ip measured for 0.03 to 24 hrs by UPLC-MS analysis; assay type: ADME, organism-based; conditions: in vivo, time 0.03-24 hrs
[35] = Biodistribution in kidney of mouse bearing tumor measured after 24 hr by ICG dye based fluorescence imaging; assay type: ADME, organism-based; conditions: in vivo

CC[C@H](C)/C=C(C)/C=C/C1=CC2=C(Cl)C(=O)[C@](C)(O)C(=O)C2=CN1Cc1ccc(OC(F)(F)F)cc1
Activity (Bel-7402 [1]): 8.1%
Activity [2]: 0.407%
Activity [3]: Non-Toxic
Activity (Bel-7402 [4]): 35.25%
Activity (Bel-7402 [5]): Dde
IC50 (PANC-1): 2.29 µM
Activity [6]: 50.3%
Activity [7]: Non-Toxic
Activity (Bel-7402 [8]): Dde
Activity [9]: Non-Toxic
Activity (Bel-7402 [10]): Active
Activity (Bel-7402 [11]): Tde
IC50 [12]: 2.76 µM
Activity (Bel-7402 [13]): Tde
viability at 2.5 µM (Bel-7402 [14]): 29.2%
viability at 2.5 µM (Bel-7402 [15]): 25.1%
Tmax [16]: 0.75 h
Activity (Bel-7402 [17]): Active
IC50 (ECa-109 cell line): 1.16 µM
viability at 0.313 µM (Bel-7402 [18]): 94.3%
Activity [19]: 46%
Drug uptake [20]: Active
inhibition in vivo at 20 mg/kg (Bel-7402 [21]): 18.3%
Activity (Bel-7402 [22]): Dde
IC50 (HeLa): 2.78 µM
Activity [23]: Non-Toxic
Activity [24]: 141 g/L
Activity (Bel-7402 [25]): 75.55%
Activity (Bel-7402 [26]): Active
IC50 (Bel-7402 [27]): 1.15 µM
AUC(0-t) [28]: 29700 ng·h/mL
Activity [29]: Non-Toxic
Activity [30]: 55 fL
Activity (Bel-7402 [31]): 3.1%
Activity [32]: 608 10^9/L
Activity [33]: Active
MRT last [34]: 4.46 h
Activity [35]: Active
